Key:
barley = experiment: Herbicidal bioassay, barley (% necrosis); type: in vivo
Protocol: (§1) A laboratory bioassay was conducted to screen ten compounds (Fluazifop (25); Ethyl fluazifop (62); five fluazifop analogues: 27, 28, 63, 64 and 65; mesofulfuron (6); and two mesosulfuron analogues: 8 and 61. for activity against Lolium perenne, barley, peas and Chinese cabbage. Compounds were diluted in DMSO. Controls were performed using both DMSO and water.
(§2) Plants were obtained as seeds and were grown to the 2-4 true leaf stage. Plants were grown individually in seed trays. Each plant (in an approximately 3 cm diameter plug) was then detached from the tray for spraying. Environmental conditions were closely monitored and recorded and were within the optimal range of the target species.
(§3) The compounds were screened at a range of six concentrations, eg. 0.05%, 0.01%, 0.005%, 0.001%, 0.0005% and 0.0001%. Treatments will be applied directly onto the plants, using a potter tower.
(§4) One plant of each type will be sprayed using a potter tower. The 4 different types of weeds will be placed in a 10 cm diameter area underneath the potter sprayer and sprayed simultaneously. The growth of the plants and any Phytotoxicity effects will then be assessed at specified growth intervals, according to EPPO guideline PP1/135. Five replicates will be performed for each treatment, for each species.

peas = experiment: Herbicidal bioassay, peas (% necrosis); type: in vivo
Protocol: as §1, §2, §3, §4

COC(=O)c1ccc(CNS(C)(=O)=O)cc1S(=O)(=O)NC(=O)Nc1nc(OC)cc(OC)n1 [Mesosulfuron (6), Mesosulfuron methyl ester, reference compound]
Sum of % necrosis in barley (barley; Dose 0.000001, Day 0): C (less than 50% necrosis)
Sum of % necrosis in barley (barley; Dose 0.000001, Day 1): C (less than 50% necrosis)
Sum of % necrosis in barley (barley; Dose 0.000001, Day 3): C (less than 50% necrosis)
Sum of % necrosis in barley (barley; Dose 0.000001, Day 7): C (less than 50% necrosis)
Sum of % necrosis in barley (barley; Dose 0.000001, Day 10): C (less than 50% necrosis)
Sum of % necrosis in barley (barley; Dose 0.000001, Day 14): C (less than 50% necrosis)
Sum of % necrosis in barley (barley; Dose 0.000005, Day 0): C (less than 50% necrosis)
Sum of % necrosis in barley (barley; Dose 0.000005, Day 1): C (less than 50% necrosis)
Sum of % necrosis in barley (barley; Dose 0.000005, Day 3): C (less than 50% necrosis)
Sum of % necrosis in barley (barley; Dose 0.000005, Day 7): C (less than 50% necrosis)
Sum of % necrosis in barley (barley; Dose 0.000005, Day 10): C (less than 50% necrosis)
Sum of % necrosis in barley (barley; Dose 0.000005, Day 14): C (less than 50% necrosis)
Sum of % necrosis in barley (barley; Dose 0.00001, Day 0): C (less than 50% necrosis)
Sum of % necrosis in barley (barley; Dose 0.00001, Day 1): C (less than 50% necrosis)
Sum of % necrosis in barley (barley; Dose 0.00001, Day 3): C (less than 50% necrosis)
Sum of % necrosis in barley (barley; Dose 0.00001, Day 7): C (less than 50% necrosis)
Sum of % necrosis in barley (barley; Dose 0.00001, Day 10): C (less than 50% necrosis)
Sum of % necrosis in barley (barley; Dose 0.00001, Day 14): C (less than 50% necrosis)
Sum of % necrosis in barley (barley; Dose 0.00005, Day 0): C (less than 50% necrosis)
Sum of % necrosis in barley (barley; Dose 0.00005, Day 1): C (less than 50% necrosis)
Sum of % necrosis in barley (barley; Dose 0.00005, Day 3): C (less than 50% necrosis)
Sum of % necrosis in barley (barley; Dose 0.00005, Day 7): C (less than 50% necrosis)
Sum of % necrosis in barley (barley; Dose 0.00005, Day 10): C (less than 50% necrosis)
Sum of % necrosis in barley (barley; Dose 0.00005, Day 14): C (less than 50% necrosis)
Sum of % necrosis in barley (barley; Dose 0.0001, Day 0): C (less than 50% necrosis)
Sum of % necrosis in barley (barley; Dose 0.0001, Day 1): C (less than 50% necrosis)
Sum of % necrosis in barley (barley; Dose 0.0001, Day 3): C (less than 50% necrosis)
Sum of % necrosis in barley (barley; Dose 0.0001, Day 7): C (less than 50% necrosis)
Sum of % necrosis in barley (barley; Dose 0.0001, Day 10): B (50%-80% necrosis)
Sum of % necrosis in barley (barley; Dose 0.0001, Day 14): B (50%-80% necrosis)
Sum of % necrosis in barley (barley; Dose 0.0005, Day 0): C (less than 50% necrosis)
Sum of % necrosis in barley (barley; Dose 0.0005, Day 1): C (less than 50% necrosis)
Sum of % necrosis in barley (barley; Dose 0.0005, Day 3): C (less than 50% necrosis)
Sum of % necrosis in barley (barley; Dose 0.0005, Day 7): C (less than 50% necrosis)
Sum of % necrosis in barley (barley; Dose 0.0005, Day 10): B (50%-80% necrosis)
Sum of % necrosis in barley (barley; Dose 0.0005, Day 14): B (50%-80% necrosis)
Sum of % necrosis in Pea (peas; Dose 0.000001, Day 0): C (less than 50% necrosis)
Sum of % necrosis in Pea (peas; Dose 0.000001, Day 1): C (less than 50% necrosis)
Sum of % necrosis in Pea (peas; Dose 0.000001, Day 3): A (over 80% necrosis)
Sum of % necrosis in Pea (peas; Dose 0.000001, Day 7): A (over 80% necrosis)
Sum of % necrosis in Pea (peas; Dose 0.000001, Day 10): A (over 80% necrosis)
Sum of % necrosis in Pea (peas; Dose 0.000001, Day 14): A (over 80% necrosis)
Sum of % necrosis in Pea (peas; Dose 0.000005, Day 0): C (less than 50% necrosis)
Sum of % necrosis in Pea (peas; Dose 0.000005, Day 1): C (less than 50% necrosis)
Sum of % necrosis in Pea (peas; Dose 0.000005, Day 3): B (50%-80% necrosis)
Sum of % necrosis in Pea (peas; Dose 0.000005, Day 7): A (over 80% necrosis)
Sum of % necrosis in Pea (peas; Dose 0.000005, Day 10): A (over 80% necrosis)
Sum of % necrosis in Pea (peas; Dose 0.000005, Day 14): A (over 80% necrosis)
Sum of % necrosis in Pea (peas; Dose 0.00001, Day 0): C (less than 50% necrosis)
Sum of % necrosis in Pea (peas; Dose 0.00001, Day 1): C (less than 50% necrosis)
Sum of % necrosis in Pea (peas; Dose 0.00001, Day 3): A (over 80% necrosis)
Sum of % necrosis in Pea (peas; Dose 0.00001, Day 7): A (over 80% necrosis)
Sum of % necrosis in Pea (peas; Dose 0.00001, Day 10): A (over 80% necrosis)
Sum of % necrosis in Pea (peas; Dose 0.00001, Day 14): A (over 80% necrosis)
Sum of % necrosis in Pea (peas; Dose 0.00005, Day 0): C (less than 50% necrosis)
Sum of % necrosis in Pea (peas; Dose 0.00005, Day 1): C (less than 50% necrosis)
Sum of % necrosis in Pea (peas; Dose 0.00005, Day 3): B (50%-80% necrosis)
Sum of % necrosis in Pea (peas; Dose 0.00005, Day 7): A (over 80% necrosis)
Sum of % necrosis in Pea (peas; Dose 0.00005, Day 10): A (over 80% necrosis)
Sum of % necrosis in Pea (peas; Dose 0.00005, Day 14): A (over 80% necrosis)
Sum of % necrosis in Pea (peas; Dose 0.0001, Day 0): C (less than 50% necrosis)
Sum of % necrosis in Pea (peas; Dose 0.0001, Day 1): C (less than 50% necrosis)
Sum of % necrosis in Pea (peas; Dose 0.0001, Day 3): A (over 80% necrosis)
Sum of % necrosis in Pea (peas; Dose 0.0001, Day 7): A (over 80% necrosis)
Sum of % necrosis in Pea (peas; Dose 0.0001, Day 10): A (over 80% necrosis)
Sum of % necrosis in Pea (peas; Dose 0.0001, Day 14): A (over 80% necrosis)
Sum of % necrosis in Pea (peas; Dose 0.0005, Day 0): C (less than 50% necrosis)
Sum of % necrosis in Pea (peas; Dose 0.0005, Day 1): C (less than 50% necrosis)
Sum of % necrosis in Pea (peas; Dose 0.0005, Day 3): C (less than 50% necrosis)
Sum of % necrosis in Pea (peas; Dose 0.0005, Day 7): A (over 80% necrosis)
Sum of % necrosis in Pea (peas; Dose 0.0005, Day 10): A (over 80% necrosis)
Sum of % necrosis in Pea (peas; Dose 0.0005, Day 14): A (over 80% necrosis)

Reference: patent publication US20150094474A1, “AGRICULTURAL CHEMICALS” (Redx Pharma Ltd., priority 2012, published 2015)
